Experimental data published in ChEMBL document CHEMBL5030507, “Structure-Based Design of a Selective Class I Histone Deacetylase (HDAC) Near-Infrared (NIR) Probe for Epigenetic Regulation Detection in Triple-Negative Breast Cancer (TNBC)” (J Med Chem, 2021).

What was measured:
Histone deacetylase 2 = Histone deacetylase 2 (Homo sapiens, UniProt Q92769); test: biochemical; assay type: cell-based, Sf9
Description: Inhibition of recombinant human full length C-terminal His- tagged HDAC2 (1 to 488 residues) expressed in Sf9 insect cells using fluorometric substrate measured after 60 mins by FRET assay

Histone deacetylase 8 = target: T1, Histone deacetylase 8 (Homo sapiens, UniProt Q9BY41); test: Inhibition of recombinant human full length C-terminal His-tagged HDAC8 expressed in baculovirus infected Sf9 insect cells using fluorometric substrate measured after 60 mins by FRET assay
T1 sequence (Q9BY41 whole entry): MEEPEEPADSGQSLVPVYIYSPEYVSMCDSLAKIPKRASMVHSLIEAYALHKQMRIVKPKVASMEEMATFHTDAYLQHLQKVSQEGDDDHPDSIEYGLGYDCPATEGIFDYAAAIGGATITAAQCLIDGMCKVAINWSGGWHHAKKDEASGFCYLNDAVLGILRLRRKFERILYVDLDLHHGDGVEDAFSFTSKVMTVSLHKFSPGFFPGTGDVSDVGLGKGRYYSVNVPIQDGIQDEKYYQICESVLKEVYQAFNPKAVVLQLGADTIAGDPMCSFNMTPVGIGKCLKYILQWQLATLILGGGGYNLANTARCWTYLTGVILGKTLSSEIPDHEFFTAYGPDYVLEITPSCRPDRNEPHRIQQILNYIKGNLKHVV

Histone deacetylase 5 = Histone deacetylase 5 (Homo sapiens, UniProt Q9UQL6); test: Inhibition of recombinant human full length N-terminal GST-tagged HDAC5 expressed in baculovirus infected Sf9 insect cells using fluorogenic substrate measured after 60 mins by FRET assay
Histone deacetylase 7 = target: T2, Histone deacetylase 7 (Homo sapiens, UniProt Q8WUI4); test: Inhibition of recombinant human N-terminal GST-tagged HDAC7 expressed in baculovirus infected Sf9 insect cells using fluorogenic substrate measured after 60 mins by FRET assay
T2 sequence (Q8WUI4 whole entry): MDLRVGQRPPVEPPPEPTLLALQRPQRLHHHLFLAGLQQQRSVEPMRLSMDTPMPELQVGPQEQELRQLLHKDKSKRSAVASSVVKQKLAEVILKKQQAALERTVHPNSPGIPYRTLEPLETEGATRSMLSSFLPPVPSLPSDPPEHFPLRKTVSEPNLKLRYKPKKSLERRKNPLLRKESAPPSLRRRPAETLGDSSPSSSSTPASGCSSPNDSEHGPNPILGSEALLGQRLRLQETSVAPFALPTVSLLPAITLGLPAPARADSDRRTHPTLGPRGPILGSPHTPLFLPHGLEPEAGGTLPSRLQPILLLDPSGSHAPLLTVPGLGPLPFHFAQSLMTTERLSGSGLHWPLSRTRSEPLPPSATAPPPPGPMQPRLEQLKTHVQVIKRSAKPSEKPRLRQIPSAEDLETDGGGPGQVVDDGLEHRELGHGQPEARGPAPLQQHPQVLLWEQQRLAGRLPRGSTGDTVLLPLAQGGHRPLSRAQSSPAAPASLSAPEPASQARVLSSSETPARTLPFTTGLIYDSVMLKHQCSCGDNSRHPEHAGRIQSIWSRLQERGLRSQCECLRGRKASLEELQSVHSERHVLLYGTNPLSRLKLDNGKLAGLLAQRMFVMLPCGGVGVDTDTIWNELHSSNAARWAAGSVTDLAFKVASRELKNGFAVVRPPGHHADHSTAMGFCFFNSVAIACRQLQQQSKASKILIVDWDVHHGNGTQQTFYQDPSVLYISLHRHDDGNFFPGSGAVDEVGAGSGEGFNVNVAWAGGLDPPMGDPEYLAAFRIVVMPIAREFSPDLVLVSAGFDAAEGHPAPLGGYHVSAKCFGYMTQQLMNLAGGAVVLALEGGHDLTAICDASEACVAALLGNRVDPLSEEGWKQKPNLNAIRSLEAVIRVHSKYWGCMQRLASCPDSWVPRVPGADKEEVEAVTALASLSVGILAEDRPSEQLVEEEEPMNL

[1] = Selectivity index, ratio of GI50 for cytotoxicity against human WI-38 cells to GI50 for antiproliferative activity against triple-negative human MDA-MB-231 cells; assay type: toxicity, cell-based; conditions: WI-38 cells versus MDA-MB-231 cells, read-out: RatioGI50

Chain of Histone deacetylase 5 (Q9UQL6 whole entry): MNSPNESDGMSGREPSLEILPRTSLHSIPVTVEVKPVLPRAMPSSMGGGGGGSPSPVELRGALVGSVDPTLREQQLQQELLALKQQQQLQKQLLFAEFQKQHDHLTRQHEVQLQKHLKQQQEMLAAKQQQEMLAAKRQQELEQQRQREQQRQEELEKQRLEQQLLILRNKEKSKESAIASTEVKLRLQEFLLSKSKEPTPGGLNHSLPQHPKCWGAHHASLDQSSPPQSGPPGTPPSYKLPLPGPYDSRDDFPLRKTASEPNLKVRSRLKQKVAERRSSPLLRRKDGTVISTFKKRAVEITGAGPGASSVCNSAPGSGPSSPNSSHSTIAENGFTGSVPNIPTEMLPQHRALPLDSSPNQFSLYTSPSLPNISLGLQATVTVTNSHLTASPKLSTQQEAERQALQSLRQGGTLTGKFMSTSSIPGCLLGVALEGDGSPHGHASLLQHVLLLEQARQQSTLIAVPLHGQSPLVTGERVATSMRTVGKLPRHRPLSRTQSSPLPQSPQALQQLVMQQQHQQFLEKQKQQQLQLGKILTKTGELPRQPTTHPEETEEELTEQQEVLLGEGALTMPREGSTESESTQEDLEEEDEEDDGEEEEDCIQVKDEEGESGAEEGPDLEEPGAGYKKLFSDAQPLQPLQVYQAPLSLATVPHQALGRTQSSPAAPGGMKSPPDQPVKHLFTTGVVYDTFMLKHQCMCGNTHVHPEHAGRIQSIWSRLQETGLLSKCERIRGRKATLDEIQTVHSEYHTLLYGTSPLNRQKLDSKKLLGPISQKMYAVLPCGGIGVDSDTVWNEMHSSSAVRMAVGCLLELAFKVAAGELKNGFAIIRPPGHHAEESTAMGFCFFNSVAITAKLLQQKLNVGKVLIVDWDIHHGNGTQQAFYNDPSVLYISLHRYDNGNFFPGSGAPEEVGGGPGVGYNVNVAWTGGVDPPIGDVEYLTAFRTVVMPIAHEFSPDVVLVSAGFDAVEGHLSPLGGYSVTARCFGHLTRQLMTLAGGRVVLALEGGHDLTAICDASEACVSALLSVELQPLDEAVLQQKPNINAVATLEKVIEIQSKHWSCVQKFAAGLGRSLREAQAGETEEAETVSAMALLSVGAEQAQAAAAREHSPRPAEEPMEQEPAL
Chain of Histone deacetylase 2 (Q92769 whole entry): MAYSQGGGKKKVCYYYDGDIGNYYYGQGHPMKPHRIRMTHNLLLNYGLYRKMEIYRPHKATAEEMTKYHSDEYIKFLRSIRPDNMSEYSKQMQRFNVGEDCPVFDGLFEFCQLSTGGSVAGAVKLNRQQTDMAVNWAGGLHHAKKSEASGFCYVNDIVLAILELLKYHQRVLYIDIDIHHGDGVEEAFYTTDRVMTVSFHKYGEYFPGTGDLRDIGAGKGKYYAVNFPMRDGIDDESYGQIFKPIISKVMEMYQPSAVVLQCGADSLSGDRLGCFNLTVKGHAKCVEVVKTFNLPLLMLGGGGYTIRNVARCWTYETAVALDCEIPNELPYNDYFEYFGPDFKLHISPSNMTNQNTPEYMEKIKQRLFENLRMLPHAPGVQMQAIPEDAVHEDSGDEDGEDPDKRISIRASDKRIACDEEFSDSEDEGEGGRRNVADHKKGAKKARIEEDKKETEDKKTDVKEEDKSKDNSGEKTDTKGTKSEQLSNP

- IC50 (Histone deacetylase 2): 0.0075 µM
- IC50 (Histone deacetylase 8): > 10 µM
- IC50 (Histone deacetylase 5): > 10 µM
- IC50 (Histone deacetylase 7): > 10 µM
Compound: C/C=C1\NC(=O)c2csc(n2)CNC(=O)C[C@@H](/C=C/CCSSCCCCCCC)OC(=O)[C@H](CCCCN)NC1=O
- selectivity ratio [1]: 194
